# In patent US12156880B2, “Heterocyclic RIP1 kinase inhibitors” (Rigel Pharmaceuticals, Inc., priority 2021, dated 2024):
# How the values were obtained:
# RIPK1 = biological target: T1, RIPK1 (Homo sapiens, UniProt Q13546); assay: RIPK1 ADP-Glo biochemical kinase assay; details: read-out: RIPK1 ADP-Glo Kinase (IC50)
# T1 sequence (Q13546 1-671): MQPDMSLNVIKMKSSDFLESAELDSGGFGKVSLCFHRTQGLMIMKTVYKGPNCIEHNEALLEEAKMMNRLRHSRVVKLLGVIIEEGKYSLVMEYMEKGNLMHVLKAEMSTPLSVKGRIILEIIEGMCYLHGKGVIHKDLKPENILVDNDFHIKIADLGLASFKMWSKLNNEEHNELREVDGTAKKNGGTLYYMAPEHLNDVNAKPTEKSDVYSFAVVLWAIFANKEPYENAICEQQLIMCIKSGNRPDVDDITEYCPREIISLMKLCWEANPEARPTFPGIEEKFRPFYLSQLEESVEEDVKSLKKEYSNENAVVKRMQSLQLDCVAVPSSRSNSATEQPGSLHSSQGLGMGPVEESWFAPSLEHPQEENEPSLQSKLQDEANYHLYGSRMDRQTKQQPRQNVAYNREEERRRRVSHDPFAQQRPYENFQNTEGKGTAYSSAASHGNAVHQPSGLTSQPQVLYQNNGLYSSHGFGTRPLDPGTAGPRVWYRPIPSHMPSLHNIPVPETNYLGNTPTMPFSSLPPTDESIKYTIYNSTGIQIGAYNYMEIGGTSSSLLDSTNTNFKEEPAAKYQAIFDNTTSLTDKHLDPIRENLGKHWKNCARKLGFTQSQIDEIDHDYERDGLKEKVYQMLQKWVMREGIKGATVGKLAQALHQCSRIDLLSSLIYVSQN
# In short: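 RIPK1 at 31 ng/well in Tris pH 7.4 buffer with MgCl2, BSA, DTT and MnCl2, reacted with compounds (duplicate) for 30 min at 30 °C. ADP formed detected by ADP-Glo: 40 min stop/depletion, then 30 min detection reagent at room temperature; luminescence read.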
# L929 cells = assay: L929 cell necroptosis assay (TNFa + zVAD, CellTiter-Glo recovery); format: cell-based, murine; details: Mus musculus, L929, 18 h, TNFa 2 ng/mL + zVAD-fmk, read-out: L929-CTG-recovery, L929, TNFa + zVAD (IC50)
# In short: (§1)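 Human U937 (50K/well, 60 uM zVAD-fmk medium, plated same day) or murine L929 (10K/well, plated 18 h, then 40 uM zVAD-fmk medium) were grown in RPMI with 10% FBS. Both were pretreated with compound for 1 h at 37 °C before TNFa at 2 ng/mL final. Viability was read by CellTiter-Glo luminescence after 18 h.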
# U937 cells = assay: U937 cell necroptosis assay (TNFa + zVAD, CellTiter-Glo recovery); format: cell-based; details: Homo sapiens, U-937, 18 h, TNFa 2 ng/mL + zVAD-fmk, read-out: U937 Zvad TNF CTG Recovery, U937, TNFa + zVAD (IC50)
# In short: as §1
Compound,IC50 (RIPK1),IC50 (L929 cells),IC50 (U937 cells)
"CN1C(=O)[C@@H](NC(=O)c2cc(Oc3cncc(F)c3)ccn2)COc2ccc(C#CC3(O)COC3)cc21 [I-59, (S)-4-((5-fluoropyridin-3-yl)oxy)-N-(7-((3-hydroxyoxetan-3-yl)ethynyl)-5-methyl-4-oxo-2,3,4,5-tetrahydrobenzo[b][1,4]oxazepin-3-yl)picolinamide]",15.9 nM,382 nM,3.5 nM
"CN1C(=O)[C@@H](NC(=O)c2cc(Oc3cncc(F)c3)ccn2)COc2ccc(C#CC(C)(C)O)cc21 [I-60, (S)-4-((5-fluoropyridin-3-yl)oxy)-N-(7-(3-hydroxy-3-methylbut-1-yn-1-yl)-5-methyl-4-oxo-2,3,4,5-tetrahydrobenzo[b][1,4]oxazepin-3-yl)picolinamide]",12.8 nM,4590 nM,12.1 nM
"CN1C(=O)[C@@H](NC(=O)c2cc(Cc3cccnc3)ccn2)COc2ccc(C#CC(C)(C)O)cc21 [I-61, (S)—N-(7-(3-hydroxy-3-methylbut-1-yn-1-yl)-5-methyl-4-oxo-2,3,4,5-tetrahydrobenzo[b][1,4]oxazepin-3-yl)-4-(pyridin-3-ylmethyl)picolinamide]",24.3 nM,2420 nM,19.2 nM
"CN1C(=O)[C@@H](NC(=O)c2cc(Cc3cccnc3)ccn2)COc2ccc(C#CC3(O)COC3)cc21 [I-62, (S)—N-(7-((3-hydroxyoxetan-3-yl)ethynyl)-5-methyl-4-oxo-2,3,4,5-tetrahydrobenzo[b][1,4]oxazepin-3-yl)-4-(pyridin-3-ylmethyl)picolinamide]",21.5 nM,1370 nM,10.9 nM
"CN1C(=O)[C@@H](NC(=O)c2cc(Oc3cccnc3)ccn2)COc2ccc(C#CC3CCOCC3)cc21 [I-63, (S)—N-(5-methyl-4-oxo-7-((tetrahydro-2H-pyran-4-yl)ethynyl)-2,3,4,5-tetrahydrobenzo[b][1,4]oxazepin-3-yl)-4-(pyridin-3-yloxy)picolinamide]",19.5 nM,60 nM,0.7 nM
"CN1C(=O)[C@@H](NC(=O)c2cc(Cc3ccccn3)ccn2)COc2ccc(C#CC3(O)COC3)cc21 [I-64, (S)—N-(7-((3-hydroxyoxetan-3-yl)ethynyl)-5-methyl-4-oxo-2,3,4,5-tetrahydrobenzo[b][1,4]oxazepin-3-yl)-4-(pyridin-2-ylmethyl)picolinamide]",30.7 nM,767 nM,67.9 nM
"Cc1nc(Cc2ccnc(C(=O)N[C@H]3COc4ccc(C#CC(C)(C)O)cc4N(C)C3=O)c2)cs1 [I-65, (S)—N-(7-(3-hydroxy-3-methylbut-1-yn-1-yl)-5-methyl-4-oxo-2,3,4,5-tetrahydrobenzo[b][1,4]oxazepin-3-yl)-4-((2-methylthiazol-4-yl)methyl)picolinamide]",18.1 nM,76.3 nM,43.4 nM
"Cc1nc(Cc2ccnc(C(=O)N[C@H]3COc4ccc(C#CC5(O)COC5)cc4N(C)C3=O)c2)cs1 [I-66, (S)—N-(7-((3-hydroxyoxetan-3-yl)ethynyl)-5-methyl-4-oxo-2,3,4,5-tetrahydrobenzo[b][1,4]oxazepin-3-yl)-4-((2-methylthiazol-4-yl)methyl)picolinamide]",15.4 nM,98 nM,35.4 nM
"CN1C(=O)[C@@H](NC(=O)c2cc(Oc3cncc(F)c3)ccn2)COc2ccc(C#CC3COC3)cc21 [I-67, (S)-4-((5-fluoropyridin-3-yl)oxy)-N-(5-methyl-7-(oxetan-3-ylethynyl)-4-oxo-2,3,4,5-tetrahydrobenzo[b][1,4]oxazepin-3-yl)picolinamide]",20.1 nM,348 nM,1.3 nM
"CN1C(=O)[C@@H](NC(=O)c2cc(Cn3cccn3)ccn2)COc2ccc(C#CC3(O)COC3)cc21 [I-70, (S)-4-((1H-pyrazol-1-yl)methyl)-N-(7-((3-hydroxyoxetan-3-yl)ethynyl)-5-methyl-4-oxo-2,3,4,5-tetrahydrobenzo[b][1,4]oxazepin-3-yl)picolinamide]",44.9 nM,2640 nM,281 nM
"CN1C(=O)[C@@H](NC(=O)c2cc(Cn3cccn3)ccn2)COc2ccc(C#CC(C)(C)O)cc21 [I-71, (S)-4-((1H-pyrazol-1-yl)methyl)-N-(7-(3-hydroxy-3-methylbut-1-yn-1-yl)-5-methyl-4-oxo-2,3,4,5-tetrahydrobenzo[b][1,4]oxazepin-3-yl)picolinamide]",87.8 nM,2150 nM,549 nM
"Cc1ccc(Cc2ccnc(C(=O)N[C@H]3COc4ccc(C#CC(C)(C)O)cc4N(C)C3=O)c2)cn1 [I-72, (S)—N-(7-(3-hydroxy-3-methylbut-1-yn-1-yl)-5-methyl-4-oxo-2,3,4,5-tetrahydrobenzo[b][1,4]oxazepin-3-yl)-4-((6-methylpyridin-3-yl)methyl)picolinamide]",33.1 nM,3010 nM,190 nM
"Cc1ccc(Cc2ccnc(C(=O)N[C@H]3COc4ccc(C#CC5(O)COC5)cc4N(C)C3=O)c2)cn1 [I-73, (S)—N-(7-((3-hydroxyoxetan-3-yl)ethynyl)-5-methyl-4-oxo-2,3,4,5-tetrahydrobenzo[b][1,4]oxazepin-3-yl)-4-((6-methylpyridin-3-yl)methyl)picolinamide]",27.6 nM,1950 nM,91.7 nM
"Cc1ncccc1Oc1ccnc(C(=O)N[C@H]2COc3ccc(C#CC(C)(C)O)cc3N(C)C2=O)c1 [I-74, (S)—N-(7-(3-hydroxy-3-methylbut-1-yn-1-yl)-5-methyl-4-oxo-2,3,4,5-tetrahydrobenzo[b][1,4]oxazepin-3-yl)-4-((2-methylpyridin-3-yl)oxy)picolinamide]",35.9 nM,3520 nM,126 nM
"Cc1ncccc1Oc1ccnc(C(=O)N[C@H]2COc3ccc(C#CC4(O)COC4)cc3N(C)C2=O)c1 [I-75, (S)—N-(7-((3-hydroxyoxetan-3-yl)ethynyl)-5-methyl-4-oxo-2,3,4,5-tetrahydrobenzo[b][1,4]oxazepin-3-yl)-4-((2-methylpyridin-3-yl)oxy)picolinamide]",10.4 nM,1870 nM,34.3 nM
"CN1C(=O)[C@@H](NC(=O)c2cc(Cc3cscn3)ccn2)COc2ccc(C#CC3(O)COC3)cc21 [I-76, (S)—N-(7-((3-hydroxyoxetan-3-yl)ethynyl)-5-methyl-4-oxo-2,3,4,5-tetrahydrobenzo[b][1,4]oxazepin-3-yl)-4-(thiazol-4-ylmethyl)picolinamide]",12.8 nM,538 nM,24.7 nM
"CN1C(=O)[C@@H](NC(=O)c2cc(Cc3cscn3)ccn2)COc2ccc(C#CC(C)(C)O)cc21 [I-77, (S)—N-(7-(3-hydroxy-3-methylbut-1-yn-1-yl)-5-methyl-4-oxo-2,3,4,5-tetrahydrobenzo[b][1,4]oxazepin-3-yl)-4-(thiazol-4-ylmethyl)picolinamide]",21.8 nM,724 nM,62.2 nM
"Cc1ccc(Oc2ccnc(C(=O)N[C@H]3COc4ccc(C#CC(C)(C)O)cc4N(C)C3=O)c2)c(C)n1 [I-78, (S)-4-((2,6-dimethylpyridin-3-yl)oxy)-N-(7-(3-hydroxy-3-methylbut-1-yn-1-yl)-5-methyl-4-oxo-2,3,4,5-tetrahydrobenzo[b][1,4]oxazepin-3-yl)picolinamide]",36.1 nM,6780 nM,462 nM
"Cc1ccc(Oc2ccnc(C(=O)N[C@H]3COc4ccc(C#CC5(O)COC5)cc4N(C)C3=O)c2)c(C)n1 [I-79, (S)-4-((2,6-dimethylpyridin-3-yl)oxy)-N-(7-((3-hydroxyoxetan-3-yl)ethynyl)-5-methyl-4-oxo-2,3,4,5-tetrahydrobenzo[b][1,4]oxazepin-3-yl)picolinamide]",67.2 nM,4330 nM,182 nM
"Cc1ncccc1Oc1ccnc(C(=O)N[C@H]2COc3ccc(C#CC4(O)CCC4)cc3N(C)C2=O)c1 [I-82, (S)—N-(7-((1-hydroxycyclobutyl)ethynyl)-5-methyl-4-oxo-2,3,4,5-tetrahydrobenzo[b][1,4]oxazepin-3-yl)-4-((2-methylpyridin-3-yl)oxy)picolinamide]",29.4 nM,4480 nM,30.2 nM
